Converted amounts (≈) assume the structure as drawn.
Columns and labels:
Escherichia coli [1] = test: Activity of Escherichia coli beta-lactamase Toho-1 N104D mutant assessed as compound hydrolysis by spectrophotometry
Escherichia coli [2] = test: Activity of Escherichia coli beta-lactamase Toho-1 […] mutant assessed as compound hydrolysis by spectrophotometry
Escherichia coli [3] = test: Activity of Escherichia coli beta-lactamase Toho-1 N104A mutant assessed as compound hydrolysis by spectrophotometry
Escherichia coli [4] = test: Activity of Escherichia coli beta-lactamase Toho-1 D240S mutant assessed as compound hydrolysis by spectrophotometry
Escherichia coli [5] = test: Activity of Escherichia coli beta-lactamase Toho-1 D240A mutant assessed as compound hydrolysis by spectrophotometry
Escherichia coli [6] = test: Activity of Escherichia coli beta-lactamase Toho-1 C69A mutant assessed as compound hydrolysis by spectrophotometry
Escherichia coli [7] = test: Activity of Escherichia coli beta-lactamase Toho-1 F160T mutant assessed as compound hydrolysis by spectrophotometry
Escherichia coli [8] = test: Activity of Escherichia coli beta-lactamase Toho-1 G232A mutant assessed as compound hydrolysis by spectrophotometry
Escherichia coli [9] = test: Ratio of Kcat to Km for Escherichia coli beta-lactamase Toho-1 N104A mutant assessed as compound hydrolysis by spectrophotometry
Escherichia coli [10] = test: Ratio of Kcat to Km for Escherichia coli beta-lactamase Toho-1 N104D mutant assessed as compound hydrolysis by spectrophotometry
Escherichia coli [11] = test: Ratio of Kcat to Km for Escherichia coli beta-lactamase Toho-1 […] mutant assessed as compound hydrolysis by spectrophotometry
Escherichia coli [12] = test: Ratio of Kcat to Km for Escherichia coli beta-lactamase Toho-1 D240S mutant assessed as compound hydrolysis by spectrophotometry
Escherichia coli [13] = test: Ratio of Kcat to Km for Escherichia coli beta-lactamase Toho-1 D240A mutant assessed as compound hydrolysis by spectrophotometry
Escherichia coli [14] = test: Ratio of Kcat to Km for Escherichia coli beta-lactamase Toho-1 C69A mutant assessed as compound hydrolysis by spectrophotometry
Escherichia coli [15] = test: Ratio of Kcat to Km for Escherichia coli beta-lactamase Toho-1 F160T mutant assessed as compound hydrolysis by spectrophotometry
Escherichia coli [16] = test: Ratio of Kcat to Km for Escherichia coli beta-lactamase Toho-1 G232A mutant assessed as compound hydrolysis by spectrophotometry
Escherichia coli [17] = test: Antibacterial activity against Escherichia coli AS226 carrying pBSD-H2 after 18 hrs by broth microdilution method; format: functional; conditions: AS226, 18 h
Escherichia coli [18] = test: Antibacterial activity against Escherichia coli AS226 carrying pBSDN104A mutant after 18 hrs by broth microdilution method; format: functional; conditions: AS226, 18 h
Escherichia coli [19] = test: Antibacterial activity against Escherichia coli AS226 carrying pBSDN104D mutant after 18 hrs by broth microdilution method; format: functional; conditions: AS226, 18 h
Escherichia coli [20] = test: Antibacterial activity against Escherichia coli AS226 carrying pBSDS237A mutant after 18 hrs by broth microdilution method; format: functional; conditions: AS226, 18 h
Escherichia coli [21] = test: Antibacterial activity against Escherichia coli AS226 carrying pBSDD240S mutant after 18 hrs by broth microdilution method; format: functional; conditions: AS226, 18 h
Escherichia coli [22] = test: Antibacterial activity against Escherichia coli AS226 carrying pBSDD240A mutant after 18 hrs by broth microdilution method; format: functional; conditions: AS226, 18 h
Escherichia coli [23] = test: Antibacterial activity against Escherichia coli AS226 carrying pBSDC69A mutant after 18 hrs by broth microdilution method; format: functional; conditions: AS226, 18 h
Escherichia coli [24] = test: Antibacterial activity against Escherichia coli AS226 carrying pBSDF160T mutant after 18 hrs by broth microdilution method; format: functional; conditions: AS226, 18 h
Escherichia coli [25] = test: Antibacterial activity against Escherichia coli AS226 carrying pBSD6 mutant after 18 hrs by broth microdilution method; format: functional; conditions: AS226, 18 h
Escherichia coli [26] = test: Antibacterial activity against Escherichia coli AS226 after 18 hrs by broth microdilution method; format: functional; conditions: AS226, 18 h

| SMILES | Km (Escherichia coli [2]) [µM] | kcat (Escherichia coli [2]) [s⁻¹] | Km (Escherichia coli [4]) [µM] | kcat (Escherichia coli [4]) [s⁻¹] | Km (Escherichia coli [5]) [µM] | kcat (Escherichia coli [5]) [s⁻¹] | Km (Escherichia coli [6]) [µM] | kcat (Escherichia coli [6]) [s⁻¹] | Km (Escherichia coli [7]) [µM] | kcat (Escherichia coli [7]) [s⁻¹] | MIC (Escherichia coli [17]) [µg/mL] | MIC (Escherichia coli [18]) [µg/mL] | MIC (Escherichia coli [19]) [µg/mL] | MIC (Escherichia coli [20]) [µg/mL] | MIC (Escherichia coli [21]) [µg/mL] | MIC (Escherichia coli [22]) [µg/mL] | MIC (Escherichia coli [23]) [µg/mL] | MIC (Escherichia coli [24]) [µg/mL] | MIC (Escherichia coli [25]) [µg/mL] | MIC (Escherichia coli [26]) [µg/mL] | also measured |
| --- | --- | --- | --- | --- | --- | --- | --- | --- | --- | --- | --- | --- | --- | --- | --- | --- | --- | --- | --- | --- | --- |
| CC1(C)S[C@@H]2[C@H](NC(=O)[C@H](N)c3ccccc3)C(=O)N2[C@H]1C(=O)O [AMPICILLIN] | 120 | 310 | 25 | 33 | 21 | 27 | 20 | 38 | 26 | 39 | 256 (≈ 733 µM) | 256 (≈ 733 µM) | 1020 (≈ 2930 µM) | 4100 (≈ 11700 µM) | 512 (≈ 1470 µM) | 512 (≈ 1470 µM) | 1020 (≈ 2930 µM) | 512 (≈ 1470 µM) | 128 (≈ 366 µM) | 1 (≈ 2.86 µM) | Km (Escherichia coli [1]): 25 µM; kcat (Escherichia coli [1]): 28 s⁻¹; Km (Escherichia coli [3]): 38 µM; kcat (Escherichia coli [3]): 27 s⁻¹; Km (Escherichia coli [8]): 35 µM; kcat (Escherichia coli [8]): 37 s⁻¹; kcat/Km (Escherichia coli [9]): 7.2 ×10⁵ /s/M; kcat/Km (Escherichia coli [10]): 1.1 ×10⁶ /s/M; kcat/Km (Escherichia coli [11]): 2.5 ×10⁶ /s/M; kcat/Km (Escherichia coli [12]): 1.3 ×10⁶ /s/M; kcat/Km (Escherichia coli [13]): 1.2 ×10⁶ /s/M; kcat/Km (Escherichia coli [14]): 1.9 ×10⁶ /s/M; kcat/Km (Escherichia coli [15]): 1.5 ×10⁶ /s/M; kcat/Km (Escherichia coli [16]): 1.1 ×10⁶ /s/M |
| C[C@H]1[C@H](NC(=O)/C(=N\OC(C)(C)C(=O)O)c2csc(N)n2)C(=O)N1S(=O)(=O)O [AZTREONAM] | 31 | 9.1 | 93 | 12 | 100 | 15 | 58 | 4.5 | 69 | 6.6 | 64 (≈ 147 µM) | 8 (≈ 18.4 µM) | 1 (≈ 2.3 µM) | 128 (≈ 294 µM) | 64 (≈ 147 µM) | 128 (≈ 294 µM) | 64 (≈ 147 µM) | 16 (≈ 36.7 µM) | 2 (≈ 4.59 µM) | < 0.125 | Km (Escherichia coli [3]): 240 µM; kcat (Escherichia coli [3]): 8.6 s⁻¹; Km (Escherichia coli [8]): 64 µM; kcat (Escherichia coli [8]): 6.7 s⁻¹; kcat/Km (Escherichia coli [9]): 3.5 ×10⁴ /s/M; kcat/Km (Escherichia coli [10]): 1.9 ×10⁴ /s/M; kcat/Km (Escherichia coli [11]): 2.9 ×10⁵ /s/M; kcat/Km (Escherichia coli [12]): 1.3 ×10⁵ /s/M; kcat/Km (Escherichia coli [13]): 1.5 ×10⁵ /s/M; kcat/Km (Escherichia coli [14]): 7.7 ×10⁴ /s/M; kcat/Km (Escherichia coli [15]): 9.6 ×10⁴ /s/M; kcat/Km (Escherichia coli [16]): 1.1 ×10⁵ /s/M |
| CC(=O)OCC1=C(C(=O)O)N2C(=O)[C@@H](NC(=O)Cc3cccs3)[C@H]2SC1 [CEPHALOTHIN] | 77 | 370 | 120 | 410 | 98 | 320 | 200 | 780 | 170 | 690 | 2050 (≈ 5170 µM) | 512 (≈ 1290 µM) | 2050 (≈ 5170 µM) | 2050 (≈ 5170 µM) | 2050 (≈ 5170 µM) | 2050 (≈ 5170 µM) | 2050 (≈ 5170 µM) | 2050 (≈ 5170 µM) | 128 (≈ 323 µM) | 2 (≈ 5.04 µM) | Km (Escherichia coli [1]): 70 µM; kcat (Escherichia coli [1]): 200 s⁻¹; Km (Escherichia coli [3]): 140 µM; kcat (Escherichia coli [3]): 180 s⁻¹; Km (Escherichia coli [8]): 150 µM; kcat (Escherichia coli [8]): 620 s⁻¹; kcat/Km (Escherichia coli [9]): 1.2 ×10⁶ /s/M; kcat/Km (Escherichia coli [10]): 2.8 ×10⁶ /s/M; kcat/Km (Escherichia coli [11]): 4.8 ×10⁶ /s/M; kcat/Km (Escherichia coli [12]): 3.3 ×10⁶ /s/M; kcat/Km (Escherichia coli [13]): 3.3 ×10⁶ /s/M; kcat/Km (Escherichia coli [14]): 4 ×10⁶ /s/M; kcat/Km (Escherichia coli [15]): 4.1 ×10⁶ /s/M; kcat/Km (Escherichia coli [16]): 4.1 ×10⁶ /s/M |
| CO/N=C(\C(=O)N[C@@H]1C(=O)N2C(C(=O)O)=C(CSc3cnns3)CS[C@H]12)c1csc(N)n1 [CEFUZONAM] | 140 | 130 | 220 | 430 | 260 | 550 | 240 | 560 | 220 | 470 | 2050 (≈ 3990 µM) | 16 (≈ 31.2 µM) | 64 (≈ 125 µM) | 1020 (≈ 1990 µM) | 256 (≈ 498 µM) | 1020 (≈ 1990 µM) | 2050 (≈ 3990 µM) | 512 (≈ 997 µM) | 2 (≈ 3.89 µM) | < 0.125 | Km (Escherichia coli [8]): 190 µM; kcat (Escherichia coli [8]): 630 s⁻¹; kcat/Km (Escherichia coli [9]): 2.8 ×10⁵ /s/M; kcat/Km (Escherichia coli [10]): 5.7 ×10⁵ /s/M; kcat/Km (Escherichia coli [11]): 9.4 ×10⁵ /s/M; kcat/Km (Escherichia coli [12]): 2 ×10⁶ /s/M; kcat/Km (Escherichia coli [13]): 2.1 ×10⁶ /s/M; kcat/Km (Escherichia coli [14]): 2.3 ×10⁶ /s/M; kcat/Km (Escherichia coli [15]): 2.1 ×10⁶ /s/M; kcat/Km (Escherichia coli [16]): 3.3 ×10⁶ /s/M |
| CC(C)(O/N=C(\C(=O)N[C@@H]1C(=O)N2C(C(=O)[O-])=C(C[n+]3ccccc3)CS[C@H]12)c1csc(N)n1)C(=O)O [CEFTAZIDIME] | – | – | – | – | – | – | – | – | – | – | 0.25 (≈ 0.457 µM) | < 0.125 | < 0.125 | 0.5 (≈ 0.915 µM) | 4 (≈ 7.32 µM) | 8 (≈ 14.6 µM) | 4 (≈ 7.32 µM) | 1 (≈ 1.83 µM) | 0.25 (≈ 0.457 µM) | < 0.125 | – |
| CO[C@@]1(NC(=O)Cc2cccs2)C(=O)N2C(C(=O)O)=C(COC(N)=O)CS[C@@H]21 [CEFOXITIN] | – | – | – | – | – | – | – | – | – | – | 1 (≈ 2.34 µM) | 1 (≈ 2.34 µM) | 2 (≈ 4.68 µM) | 2 (≈ 4.68 µM) | 1 (≈ 2.34 µM) | 1 (≈ 2.34 µM) | 2 (≈ 4.68 µM) | 2 (≈ 4.68 µM) | 2 (≈ 4.68 µM) | 1 (≈ 2.34 µM) | – |
| C[C@@H](O)[C@H]1C(=O)N2C(C(=O)O)=C(SCCNC=N)C[C@H]12 [IMIPENEM ANHYDROUS] | – | – | – | – | – | – | – | – | – | – | < 0.125 | 0.125 (≈ 0.418 µM) | 0.125 (≈ 0.418 µM) | – | – | 0.125 (≈ 0.418 µM) | – | – | – | < 0.125 | – |
| CO/N=C(\C(=O)N[C@@H]1C(=O)N2C(C(=O)O)=C(COC(C)=O)CS[C@H]12)c1csc(N)n1 [CEFOTAXIME] | 230 | 94 | 320 | 370 | 360 | 440 | 350 | 370 | 360 | 410 | 256 (≈ 562 µM) | 16 (≈ 35.1 µM) | 256 (≈ 562 µM) | 32 (≈ 70.3 µM) | 1020 (≈ 2250 µM) | 512 (≈ 1120 µM) | 1020 (≈ 2250 µM) | 256 (≈ 562 µM) | 2 (≈ 4.39 µM) | < 0.125 | Km (Escherichia coli [8]): 259 µM; kcat (Escherichia coli [8]): 440 s⁻¹; kcat/Km (Escherichia coli [9]): 1.2 ×10⁵ /s/M; kcat/Km (Escherichia coli [10]): 2.4 ×10⁵ /s/M; kcat/Km (Escherichia coli [11]): 4.1 ×10⁵ /s/M; kcat/Km (Escherichia coli [12]): 1.2 ×10⁶ /s/M; kcat/Km (Escherichia coli [13]): 1.3 ×10⁶ /s/M; kcat/Km (Escherichia coli [14]): 1 ×10⁶ /s/M; kcat/Km (Escherichia coli [15]): 1.2 ×10⁶ /s/M; kcat/Km (Escherichia coli [16]): 1.7 ×10⁶ /s/M |
